Assay results as given in PubChem BioAssay (NCI).
Values joined by “and” are separate entries in the source; they are usually repeats but may differ in a detail not shown here. Equal entries are not always repeated.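 Cells were grown in 96-well plates and exposed to each compound for 48 hours at five concentrations; endpoints were interpolated linearly between bracketing concentrations, or set to the highest concentration if not reached. Abbreviation: GI50, concentration required for 50% inhibition of growth. Definition used: TGI = concentration required for complete inhibition of growth.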

Test system: MDA-MB-468 breast
Experiment: NCI anticancer screen, dose series, 48 h

With CCNC(=O)[C@@H]1CCCN2C(=O)CC[C@H](NC(=O)[C@H](Cc3ccc(OP(=O)(O)O)cc3)NC(C)=O)C(=O)N12 the GI50 was > 25 µM and the TGI was > 25 µM.
For COc1ccc(C2CC(c3cc(OC)c(OC)c(OC)c3)=NO2)cc1OCCCCOc1cc2c(cc1OC)C(=O)N1CCC[C@H]1C=N2 (some centres not stated), the GI50 was 1.34 µM and the TGI was 2.97 µM.
C=C1C(=O)O[C@H]2[C@H]1CC/C(CNC(=O)Cc1c[nH]c3ccccc13)=C\CC[C@@]1(C)O[C@@H]21 was tested, and the GI50 was 0.795 µM and the TGI was 2.73 µM.
Nc1c(C(=O)c2cccc(CCCN3CCOCC3)c2)cnn1-c1ccc(F)cc1 was tested, and the GI50 was > 20.1 µM and the TGI was > 25 µM.
In the case of CC(=O)N[C@@H](Cc1ccc(OP(=O)(O)O)cc1)C(=O)N[C@H]1CCC(=O)N2CCC[C@@H](C(=O)NCc3ccc(Cl)cc3)N2C1=O, the GI50 was > 25 µM and the TGI was > 25 µM.
COc1cc(NS(C)(=O)=O)ccc1Nc1c2ccc([N+](=O)[O-])cc2nc2c(C)cccc12 gave a GI50 of 0.246 µM and a TGI of 0.873 µM.
For COc1ccc2[nH]c(=O)c3c4ccccc4cn3c2c1, the GI50 was 0.179 µM and the TGI was 1.36 µM.
With Nc1ccc2c(c1)C(=O)C(=O)c1c-2nc2ccccn12 the GI50 was 1.53 µM and the TGI was 3.11 µM.
COc1cc(C(=O)/C=C/c2c(C)n([O-])c3ccc(C)cc3[n+]2=O)cc(OC)c1OC showed a GI50 of 2.59 µM and a TGI of 9.94 µM.
N#Cc1cnc2ccc(-c3cnc(N)nc3)cc2c1N1CCc2cc(F)c(Cl)cc21 was tested, and the GI50 was 0.38 µM and the TGI was 2.04 µM.
In the case of CCN1CCN(Cc2ccc(-c3cc4c(N[C@H](C)c5ccccc5)ncnc4[nH]3)cc2)CC1, the GI50 was 0.0202 µM and 0.0419 µM and the TGI was 0.286 µM and 0.481 µM.
OC(c1cccc(-n2ccc(C(F)(F)F)n2)c1)c1cnccc1NC1CCCCCC1 (configuration not stated) showed a GI50 of 1.64 µM and a TGI of 3.28 µM.
Molecule CC(C)[C@]12O[C@H]1[C@@H]1O[C@]13[C@]1(O[C@H]1C[C@H]1C4=C(CC[C@@]13C)C(=O)OC4)[C@@H]2O has a GI50 of 0.0176 µM and a TGI of 0.0385 µM.
In the case of F, the GI50 was 4500 µM and the TGI was > 6870 µM.
CCSCC1CC(O)(c2ccccc2)C(c2ccccc2)C(c2ccc(Cl)cc2)O1 (configuration not stated) showed a GI50 of 1.7 µM and a TGI of 3.55 µM.
For Nc1cc(-c2c[nH]c3ccc(F)cc23)nc2cc(-c3c[nH]c4ccc(F)cc34)nn12, the GI50 was 2.01 µM and the TGI was 3.84 µM.
For C[C@@H]1COCCN1c1cc(C2([S@](C)(=N)=O)CC2)nc(-c2ccnc3[nH]ccc23)n1, the GI50 was 3.12 µM and 4.14 µM and the TGI was 27.2 µM and > 10 µM.
Work on FC(F)(F)Oc1cccc(-c2cnc3ccc(-c4ccncc4)nn23)c1 yielded a GI50 of 0.59 µM and a TGI of 3.77 µM.
C=CC[n+]1c(/C=C/C=C2\N(C)c3ccccc3C2(C)C)sc2ccc(OC)cc21 gave a GI50 of 0.0297 µM and a TGI of 1.05 µM.
In the case of CCN(CC)CCOCC[C@H]1CC[C@H]2[C@@H]3[C@H](C)Cc4cc(OS(N)(=O)=O)ccc4[C@H]3CC[C@]12C, the GI50 was 0.259 µM and the TGI was 1.36 µM.
Molecule COc1ccc2oc(=O)cc(C(c3ccc[nH]3)c3ccc[nH]3)c2c1 has a GI50 of 0.344 µM and a TGI of 3.34 µM.
COc1ccc(CC(C)=C(c2ccc(OCCN3CCCC3)cc2)c2ccc(OCCN3CCCC3)cc2)cc1 showed a GI50 of 0.777 µM and a TGI of 3.1 µM.
N#Cc1c(-c2ccccc2)nc(SCC2CO2)nc1N1CCOCC1 (configuration not stated) was tested, and the GI50 was 4.15 µM and the TGI was > 68.4 µM.
Molecule Cc1ccc2c(c1)C(C)Cc1c(ncnc1-n1cnc3ccccc31)N2C (configuration not stated) has a GI50 of 0.262 µM and a TGI of 23.2 µM.
For O=C(NC1CCN(Cc2ccccc2)CC1)c1cc(-c2ccncc2)nc2ccc(Cl)cc12, the GI50 was 6.82 µM and the TGI was 37 µM.
O=C(NNc1nc2cc(F)ccc2n2c(CN3CCCC3)ccc12)c1cnccn1 gave a GI50 of 1.6 µM and a TGI of 6.9 µM.
Cc1ccc([N+](=O)[O-])cc1NC(=O)Nc1cccc(F)c1 gave a GI50 of 3.6 µM and a TGI of 24.7 µM.
For Cn1cc(-c2ccc3c(Nc4cccc(NC(=O)Nc5cccc(F)c5)c4)ncnc3c2)cn1, the GI50 was 0.107 µM and the TGI was 1.64 µM.
For COC(=O)CCC(=O)C(=O)OC, the GI50 was 90800 µM and the TGI was > 100000 µM.
With CC1(C)N=C(N)N=C(N)N1c1cccc(CCCCc2cccc(S(=O)(=O)F)c2)c1 the GI50 was 0.748 µM and the TGI was 26.4 µM.
In the case of CN(C)CCOc1ccc(-c2nc(-c3ccc4c(c3)CC/C4=N\O)c(-c3ccncc3)[nH]2)cc1, the GI50 was 3.63 µM and 2.74 µM and the TGI was 7.37 µM and 24.4 µM.
Molecule COc1cc2c(cc1O)CC[C@@H]1[C@@H]2CC[C@]2(C)[C@@H](NCCN(C)C)CC[C@@H]12 has a GI50 of 0.126 µM and a TGI of 0.499 µM.
CCS(=O)(=O)N1CCC(C(C)n2c(C)c(C(=O)NCc3c(OC)cc(C)[nH]c3=O)c3ccccc32)CC1 (configuration not stated) was tested, and the GI50 was 92 µM and the TGI was > 100 µM.
In the case of Clc1ccc(CSC(Cn2ccnc2)c2ccc(Cl)cc2Cl)cc1 (configuration not stated), the GI50 was 1.39 µM and the TGI was 3.37 µM.
Cc1cccc(NC(=O)CCc2ccc(N3C(N)=NC(N)=NC3(C)C)cc2)c1 was tested, and the GI50 was 0.692 µM and the TGI was > 51.4 µM.
For CC12CCC3C(CCC4Cc5[nH]c6ccccc6c5CC43C)C1CCC2O (configuration not stated), the GI50 was 2.78 µM and the TGI was > 100 µM.
